Assay results from the supplement of paper PMC11208160.

Test: recombinant barcode read abundance after kanamycin selection (control-corrected) (log10(CPM+1)); higher = more efficient recombination; sequences stand for … in AGTGCAGAGAAAATCGGCCAGTTTTCTCTGCCTGCAGTCCGCATGCCGT…ATTTATGCAGCGGACTGCCTTTCTCCCAAAGTGATAAACCGGACAGTATCATGGACCGGTTTTCCCGGTAATCCGTATTTGCAAGGTTGGTTTCACT; site = the 11-nt target
Outline: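 Recombination efficiency was calculated from barcode counts at recombinant junctions, normalized to counts per million, averaged and corrected by the control. Each value is given as log10(CPM+1). The constructs were Gibson-cloned oligos (promoter, target, barcode, J23119-driven first 104 bridge RNA bases) in a vector with the remaining 73 bp and a T7-inducible recombinase, co-electroporated into E. coli with a donor plasmid and plated in duplicate on chloramphenicol/ampicillin LB agar (control) or chloramphenicol/ampicillin/kanamycin with 0.1 mM IPTG.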

Row | Sequence | recombinant barcode read abundance (log10)
1 | GCGCGACCTTGGGTTCTAACCTGTTGCTTCA [GCGCGACCTAA_LTGcore_CT_RTGcore_TG] (site GCGCGACCTAA) (LTG core: CT, RTG core: TG) | 0.481
2 | AGGAGGTGATGGGTTCTAACCTGTTGCCTAG [AGGAGGTCTAG_LTGcore_GA_RTGcore_CT] (site AGGAGGTCTAG) (LTG core: GA, RTG core: CT) | 0.417
3 | GAGTCCTTCTGGGTTCTAACCTGTTGCCTGA [GAGTCCTCTAG_LTGcore_TC_RTGcore_TC] (site GAGTCCTCTAG) (LTG core: TC, RTG core: TC) | 0.0603
4 | AGGAGGTTTTGGGTTCTAACCTGTTGCCTAG [AGGAGGTCTAG_LTGcore_TT_RTGcore_CT] (site AGGAGGTCTAG) (LTG core: TT, RTG core: CT) | 0.0313
5 | AGGAGGTCTTGGGTTCTAACCTGTTGCCTGG [AGGAGGTCTAG_LTGcore_CT_RTGcore_CC] (site AGGAGGTCTAG) (LTG core: CT, RTG core: CC) | 0.551
6 | TCGCGACCTTGGGTTCTAACCTGTTGCCGTT [TCGCGACCTCG_LTGcore_CT_RTGcore_AA] (site TCGCGACCTCG) (LTG core: CT, RTG core: AA) | 0.0373
7 | GAGTCCTACTGGGTTCTAACCTGTTGCCTGT [GAGTCCTCTAG_LTGcore_AC_RTGcore_AC] (site GAGTCCTCTAG) (LTG core: AC, RTG core: AC) | 0.011
8 | GAGCCCAAGTGGGTTCTAACCTGTTGCCTCT [GAGCCCACTAG_LTGcore_AG_RTGcore_AG] (site GAGCCCACTAG) (LTG core: AG, RTG core: AG) | 0.229
9 | TGTATTCCGTGGGTTCTAACCTGTTGCCTCG [TGTATTCCTAG_LTGcore_CG_RTGcore_CG] (site TGTATTCCTAG) (LTG core: CG, RTG core: CG) | 0.0909
10 | TAGAGGGATTGGGTTCTAACCTGTTGCGGAT [TAGAGGGCTCC_LTGcore_AT_RTGcore_AT] (site TAGAGGGCTCC) (LTG core: AT, RTG core: AT) | 0.237
11 | GCGGGACCCTGGGTTCTAACCTGTTGCCTAG [GCGGGACCTAG_LTGcore_CC_RTGcore_CT] (site GCGGGACCTAG) (LTG core: CC, RTG core: CT) | 1.21
12 | AGGAGGTAGTGGGTTCTAACCTGTTGCCTAG [AGGAGGTCTAG_LTGcore_AG_RTGcore_CT] (site AGGAGGTCTAG) (LTG core: AG, RTG core: CT) | 0.122
13 | GGACACCATTGGGTTCTAACCTGTTGCCTAT [GGACACCCTAG_LTGcore_AT_RTGcore_AT] (site GGACACCCTAG) (LTG core: AT, RTG core: AT) | 0.145
14 | CATATTACTTGGGTTCTAACCTGTTGCCTCA [CATATTACTAG_LTGcore_CT_RTGcore_TG] (site CATATTACTAG) (LTG core: CT, RTG core: TG) | 0.0517
15 | ATGTCCCCTTGGGTTCTAACCTGTTGCTCTT [ATGTCCCCTGA_LTGcore_CT_RTGcore_AA] (site ATGTCCCCTGA) (LTG core: CT, RTG core: AA) | 0.0454
16 | GGGAGCCATTGGGTTCTAACCTGTTGCTGAT [GGGAGCCCTCA_LTGcore_AT_RTGcore_AT] (site GGGAGCCCTCA) (LTG core: AT, RTG core: AT) | 0.574
17 | GAGGCCTGGTGGGTTCTAACCTGTTGCCAAG [GAGGCCTCTTG_LTGcore_GG_RTGcore_CT] (site GAGGCCTCTTG) (LTG core: GG, RTG core: CT) | 0.103
18 | AAACAGTTTTGGGTTCTAACCTGTTGCCTAA [AAACAGTCTAG_LTGcore_TT_RTGcore_TT] (site AAACAGTCTAG) (LTG core: TT, RTG core: TT) | 0.182
19 | GAGCCCACTTGGGTTCTAACCTGTTGCCTTC [GAGCCCACTAG_LTGcore_CT_RTGcore_GA] (site GAGCCCACTAG) (LTG core: CT, RTG core: GA) | 0.518
20 | ACGGGACCTTGGGTTCTAACCTGTTGCAGAC [ACGGGACCTCT_LTGcore_CT_RTGcore_GT] (site ACGGGACCTCT) (LTG core: CT, RTG core: GT) | 0.9
21 | TCGCGACGTTGGGTTCTAACCTGTTGCCGAG [TCGCGACCTCG_LTGcore_GT_RTGcore_CT] (site TCGCGACCTCG) (LTG core: GT, RTG core: CT) | 0.391
22 | ATGCTTTTTTGGGTTCTAACCTGTTGCCTAG [ATGCTTTCTAG_LTGcore_TT_RTGcore_CT] (site ATGCTTTCTAG) (LTG core: TT, RTG core: CT) | 0.239
23 | TCTACCCCCTGGGTTCTAACCTGTTGCTGGG [TCTACCCCTCA_LTGcore_CC_RTGcore_CC] (site TCTACCCCTCA) (LTG core: CC, RTG core: CC) | 0.0201

Row | Sequence | recombinant barcode read abundance (log10)
24 | GAGTCCTTGTGGGTTCTAACCTGTTGCCTCA [GAGTCCTCTAG_LTGcore_TG_RTGcore_TG] (site GAGTCCTCTAG) (LTG core: TG, RTG core: TG) | 0.235
25 | AGTCTTATGTGGGTTCTAACCTGTTGCCACA [AGTCTTACTTG_LTGcore_TG_RTGcore_TG] (site AGTCTTACTTG) (LTG core: TG, RTG core: TG) | 0.0473
26 | GGTGCCCATTGGGTTCTAACCTGTTGCCGAT [GGTGCCCCTCG_LTGcore_AT_RTGcore_AT] (site GGTGCCCCTCG) (LTG core: AT, RTG core: AT) | 0.0482
27 | GGACACCCTTGGGTTCTAACCTGTTGCCTGG [GGACACCCTAG_LTGcore_CT_RTGcore_CC] (site GGACACCCTAG) (LTG core: CT, RTG core: CC) | 0.503
28 | GTCGCCCTATGGGTTCTAACCTGTTGCTATA [GTCGCCCCTTA_LTGcore_TA_RTGcore_TA] (site GTCGCCCCTTA) (LTG core: TA, RTG core: TA) | 0.394
29 | GAGCCCACTTGGGTTCTAACCTGTTGCCTGT [GAGCCCACTAG_LTGcore_CT_RTGcore_AC] (site GAGCCCACTAG) (LTG core: CT, RTG core: AC) | 0.522
30 | GGACACCCTTGGGTTCTAACCTGTTGCCTCC [GGACACCCTAG_LTGcore_CT_RTGcore_GG] (site GGACACCCTAG) (LTG core: CT, RTG core: GG) | 0.904
31 | TTATAAATGTGGGTTCTAACCTGTTGCCTAG [TTATAAACTAG_LTGcore_TG_RTGcore_CT] (site TTATAAACTAG) (LTG core: TG, RTG core: CT) | 0.083
32 | CATATTATATGGGTTCTAACCTGTTGCCTAG [CATATTACTAG_LTGcore_TA_RTGcore_CT] (site CATATTACTAG) (LTG core: TA, RTG core: CT) | 0.0615
33 | GGACACCCTTGGGTTCTAACCTGTTGCCTCT [GGACACCCTAG_LTGcore_CT_RTGcore_AG] (site GGACACCCTAG) (LTG core: CT, RTG core: AG) | 0.545
34 | CGCGCCCAGTGGGTTCTAACCTGTTGCGGAG [CGCGCCCCTCC_LTGcore_AG_RTGcore_CT] (site CGCGCCCCTCC) (LTG core: AG, RTG core: CT) | 0.0753
35 | GGACACCTATGGGTTCTAACCTGTTGCCTTA [GGACACCCTAG_LTGcore_TA_RTGcore_TA] (site GGACACCCTAG) (LTG core: TA, RTG core: TA) | 0
36 | AAACACAGATGGGTTCTAACCTGTTGCCTTC [AAACACACTAG_LTGcore_GA_RTGcore_GA] (site AAACACACTAG) (LTG core: GA, RTG core: GA) | 0.152
37 | TAGAGGGGTTGGGTTCTAACCTGTTGCGGAC [TAGAGGGCTCC_LTGcore_GT_RTGcore_GT] (site TAGAGGGCTCC) (LTG core: GT, RTG core: GT) | 0.189
38 | GGGCGGACTTGGGTTCTAACCTGTTGCGGGT [GGGCGGACTCC_LTGcore_CT_RTGcore_AC] (site GGGCGGACTCC) (LTG core: CT, RTG core: AC) | 0.273
39 | ACGGGACAATGGGTTCTAACCTGTTGCAGTT [ACGGGACCTCT_LTGcore_AA_RTGcore_AA] (site ACGGGACCTCT) (LTG core: AA, RTG core: AA) | 0.298
40 | TAGAGGGCCTGGGTTCTAACCTGTTGCGGAG [TAGAGGGCTCC_LTGcore_CC_RTGcore_CT] (site TAGAGGGCTCC) (LTG core: CC, RTG core: CT) | 2.4
41 | TCTACCCTGTGGGTTCTAACCTGTTGCTGCA [TCTACCCCTCA_LTGcore_TG_RTGcore_TG] (site TCTACCCCTCA) (LTG core: TG, RTG core: TG) | 0.0126
42 | GGGCGGACTTGGGTTCTAACCTGTTGCGGGC [GGGCGGACTCC_LTGcore_CT_RTGcore_GC] (site GGGCGGACTCC) (LTG core: CT, RTG core: GC) | 0.131
43 | AGGCCTCCTTGGGTTCTAACCTGTTGCCTAG [AGGCCTCCTAG_LTGcore_CT_RTGcore_CT] (site AGGCCTCCTAG) (LTG core: CT, RTG core: CT) | 1.32
44 | CGAGCCCGATGGGTTCTAACCTGTTGCTGAG [CGAGCCCCTCA_LTGcore_GA_RTGcore_CT] (site CGAGCCCCTCA) (LTG core: GA, RTG core: CT) | 0.157
45 | CGAGCCCAGTGGGTTCTAACCTGTTGCTGCT [CGAGCCCCTCA_LTGcore_AG_RTGcore_AG] (site CGAGCCCCTCA) (LTG core: AG, RTG core: AG) | 0.189
